Experimental data: patent US20260184675A1, “CHIRAL ISOMERIC SULFITE COMPOUND AND APPLICATION THEREOF” (Chengdu Hanova BioSciences Co., Ltd, priority 2024, published 2026)

Test system: eggs of Tetranychus cinnabarinus
Experiment: Effects of sulfite compounds 1-30 and 1′-30′ on hatching of eggs of Tetranychus cinnabarinus at 100 ppm, leaf disc method
Type: in vivo
Conditions: 7 days after insecticide delivery
Method: • (1) Preparation of leaf discs containing eggs: 20 female adult mites of Tetranychus cinnabarinus were transferred onto leaf discs of Vicia faba with a diameter of 2.0 cm (with wetted filter paper at the bottom), then covered it with a lidded culture dish and cultivated under moisturizing conditions, the adult mites were removed within 36 hours and microscopic examination and counting were performed on leaf discs containing eggs. • (2) Investigation of egg population base: Before pesticide soaking, a microscopic examination was conducted on the egg basic number of each leaf disc, with 2 replicates set for each treatment. • (3) Pesticide soaking treatment: The leaf butterflies loaded with mite eggs were soaked in clear water and sulfite compounds for 10 seconds, respectively, then taken out and cultivated under moisturizing conditions. Each treatment should be repeated for no less than 3 times. • (4) Cultivation and observation: The […] were cultivated under normal conditions. Five days after insecticide delivery, the hatching status of mite eggs was investigated. • Note: The temperature and humidity conditions of the constant temperature and humidity incubator after the treatment should be controlled so as to avoid excessive temperature differences, which may cause generation and dripping of condensate water in the culture dish, resulting in abnormal death of eggs due to soaking in water; it is also necessary to ensure sufficient strong ambient light, without directing irradiating the leaves. • (5) Survey of Results: The experimental materials of each treatment group were regularly hydrated and moisturized, and the hatching of eggs was observed. On the 7th day after insecticide delivery, the number of hatched eggs for each treatment was recorded, and the survey of results was recorded in the original notebook. According to the experimental requirements and characteristics of agents, the survey time can be shortened or extended.
• 1) Surveying and recording the number of hatched eggs for each treatment. • 2) Photographing and recording whether there was any pesticide damage to the leaf discs of Vicia faba. • 3) Recording the developmental status of experimental mite eggs, behavior status of nymph mites, including abnormal phenomena such as delayed or stopped development of mite eggs, difficulty in breaking hull for nymph mites, or painful struggles after hatching, etc. • (6) Calculation method: Based on the survey data, the prevention and control effect of each treatment was calculated according to the following formula, and the calculation results were kept to two decimal places. […]

Row | Structure (SMILES) | Hatching rate (%), Replicate 2 (replicate 2) | Hatching rate (%), Replicate 3
1 | CC(COS(=O)OCCF)Oc1cc(Cl)ccc1Cl (stereo not shown) [Compound 7] | 8.15% | 
2 | O=C(OCCF)OC1COCC1Oc1ccc(Cl)cc1Cl (stereo not shown) [Compound 25] |  | 0.00%
3 | CC(COc1cc(Cl)ccc1Cl)OS(=O)OCCBr (stereo not shown) [Compound 9′] |  | 15.15%
4 | CC(C)(COS(=O)OCCBr)Oc1ccc(Cl)cc1Cl (stereo not shown) [Compound 12′] |  | 10.39%
